Literature values in patent US20150346185A1, “DIAGNOSIS OF CYSTIC FIBROSIS” (priority 2012, published 2015).

Biological target: T1, Na+ channel ENaC (Homo sapiens, UniProt P37088+P51168+P51170)
T1 construct: from tissue; host or cells: human nasal epithelium (healthy individuals and cystic fibrosis patients)
Settings: healthy patients, infusion of amiloride

T1 sequence (P51168 whole entry): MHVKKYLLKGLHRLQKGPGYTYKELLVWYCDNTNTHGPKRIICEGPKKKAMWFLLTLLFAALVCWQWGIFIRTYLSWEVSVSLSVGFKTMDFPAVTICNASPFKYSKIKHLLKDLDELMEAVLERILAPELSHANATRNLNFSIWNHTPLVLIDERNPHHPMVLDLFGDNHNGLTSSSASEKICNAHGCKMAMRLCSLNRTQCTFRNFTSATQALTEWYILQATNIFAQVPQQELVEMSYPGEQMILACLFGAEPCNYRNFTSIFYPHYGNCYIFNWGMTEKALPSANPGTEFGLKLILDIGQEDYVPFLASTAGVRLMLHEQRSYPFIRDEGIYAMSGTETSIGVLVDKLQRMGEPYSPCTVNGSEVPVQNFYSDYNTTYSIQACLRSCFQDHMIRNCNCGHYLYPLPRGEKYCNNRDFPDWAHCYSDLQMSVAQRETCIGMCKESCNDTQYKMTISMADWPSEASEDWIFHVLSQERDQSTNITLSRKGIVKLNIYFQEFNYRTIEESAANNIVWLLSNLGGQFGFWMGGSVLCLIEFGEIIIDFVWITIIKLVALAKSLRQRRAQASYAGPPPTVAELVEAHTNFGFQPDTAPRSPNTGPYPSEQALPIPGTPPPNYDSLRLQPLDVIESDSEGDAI
T1 sequence (P37088 whole entry): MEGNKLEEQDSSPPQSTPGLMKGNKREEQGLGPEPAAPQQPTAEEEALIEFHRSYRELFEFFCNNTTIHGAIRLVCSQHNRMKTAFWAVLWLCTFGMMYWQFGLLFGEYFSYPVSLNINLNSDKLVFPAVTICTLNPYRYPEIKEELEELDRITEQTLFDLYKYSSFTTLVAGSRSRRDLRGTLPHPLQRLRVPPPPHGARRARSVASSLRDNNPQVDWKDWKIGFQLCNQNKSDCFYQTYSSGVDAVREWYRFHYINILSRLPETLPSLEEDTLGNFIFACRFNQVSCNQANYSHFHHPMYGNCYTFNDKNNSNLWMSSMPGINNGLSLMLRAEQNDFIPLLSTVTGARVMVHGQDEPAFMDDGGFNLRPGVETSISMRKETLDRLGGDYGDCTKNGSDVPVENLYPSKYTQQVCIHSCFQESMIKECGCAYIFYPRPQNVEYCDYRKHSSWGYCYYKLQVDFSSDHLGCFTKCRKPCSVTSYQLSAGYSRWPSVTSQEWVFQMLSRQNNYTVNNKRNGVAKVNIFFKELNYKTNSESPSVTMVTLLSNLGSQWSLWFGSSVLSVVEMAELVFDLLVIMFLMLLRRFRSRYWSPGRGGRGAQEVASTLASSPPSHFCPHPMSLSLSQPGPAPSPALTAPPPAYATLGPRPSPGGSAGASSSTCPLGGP
T1 sequence (P51170 whole entry): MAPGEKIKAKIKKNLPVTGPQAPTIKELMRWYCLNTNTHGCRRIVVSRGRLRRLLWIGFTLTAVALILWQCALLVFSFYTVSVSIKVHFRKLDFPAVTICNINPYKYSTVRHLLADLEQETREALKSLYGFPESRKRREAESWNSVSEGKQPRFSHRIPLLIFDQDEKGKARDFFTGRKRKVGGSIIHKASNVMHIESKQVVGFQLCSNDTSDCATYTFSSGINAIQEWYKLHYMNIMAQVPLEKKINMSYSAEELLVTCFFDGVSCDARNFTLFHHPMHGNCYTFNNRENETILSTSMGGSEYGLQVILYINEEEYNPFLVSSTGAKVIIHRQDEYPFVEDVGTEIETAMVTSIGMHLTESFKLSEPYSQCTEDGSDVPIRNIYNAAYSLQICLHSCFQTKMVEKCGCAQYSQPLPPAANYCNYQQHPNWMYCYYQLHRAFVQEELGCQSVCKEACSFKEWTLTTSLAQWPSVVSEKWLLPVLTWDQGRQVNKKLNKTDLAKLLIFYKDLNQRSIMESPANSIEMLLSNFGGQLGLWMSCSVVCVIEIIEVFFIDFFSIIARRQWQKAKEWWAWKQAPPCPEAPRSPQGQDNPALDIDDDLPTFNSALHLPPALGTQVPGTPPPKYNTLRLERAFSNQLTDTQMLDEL

## N=C(N)NC(=O)c1nc(Cl)c(N)nc1N [amiloride]
  reduction of nasal transepithelial potential difference: 55%
